Each block holds one compound with its values, some of them ahead of it.
Key:
CDK2 = target: T1, CDK2 (Homo sapiens, UniProt P24941); details: read-out: CDK2 inhibitory activity IC50; cited from earlier work
T1 construct: purchased BPS Biosciences 79599

breast cancer = test system: breast cancer; set-up: method as in PMID 16392802; details: cited from earlier work

- melting point: 275 to 277 °C
SMILES: O=C(COc1ccccc1-c1nc2ccccc2s1)NN=C1C(=O)Nc2ccc([N+](=O)[O-])cc21 [Compound 9d, 2-(2-(Benzo[d]thiazol-2-yl)phenoxy)-N′-(5-nitro-2-oxoindolin-3-ylidene)acetohydrazide]

SMILES: O=C1Nc2ccccc2/C1=C1/Nc2ccccc2/C1=N\O [indirubin-3′-oxime (IV), indirubin-3′-oxime]
- IC50 (CDK2): 440 nM

SMILES: COc1ccc(-c2nc3cc(F)ccc3s2)cc1OC [GW 610 (VII), 2-(3,4-dimethoxyphenyl)-5-fluorobenzothiazole]
- growth inhibitory activity in vitro (breast cancer): sub-nanomolar

Reference: PMC11396129, “Oxindole–benzothiazole hybrids as CDK2 inhibitors and anticancer agents: design, synthesis and biological evaluation” (BMC Chemistry, 2024)
